The target of this test is PKMYT1 (Homo sapiens (Human), UniProt Q99640). Nature of the test: PKMYT1 HTRF assay. As to conditions: Tracer 178, GST-Tb, compound 10 μM to 0.5 nM. Type of test: binding. As for the experimental part: Compound serial dilution was performed by Echo, and the final concentrations varied from 10 μM to 0.5 nM. 5 μL/well of Enzyme solution was added to the assay plate containing the compound. The plate was centrifuged at 1000 rpm for 1 min, and incubated at 25° C. for 15 min. […] Next, 5 μL of GST-Tb was added into the assay plate, the plate was centrifuged at 1000 rpm for 1 min, and incubated at 25° C. for 15 min. The assay plate was read on Envision.
Chain of PKMYT1 (Q99640 whole entry): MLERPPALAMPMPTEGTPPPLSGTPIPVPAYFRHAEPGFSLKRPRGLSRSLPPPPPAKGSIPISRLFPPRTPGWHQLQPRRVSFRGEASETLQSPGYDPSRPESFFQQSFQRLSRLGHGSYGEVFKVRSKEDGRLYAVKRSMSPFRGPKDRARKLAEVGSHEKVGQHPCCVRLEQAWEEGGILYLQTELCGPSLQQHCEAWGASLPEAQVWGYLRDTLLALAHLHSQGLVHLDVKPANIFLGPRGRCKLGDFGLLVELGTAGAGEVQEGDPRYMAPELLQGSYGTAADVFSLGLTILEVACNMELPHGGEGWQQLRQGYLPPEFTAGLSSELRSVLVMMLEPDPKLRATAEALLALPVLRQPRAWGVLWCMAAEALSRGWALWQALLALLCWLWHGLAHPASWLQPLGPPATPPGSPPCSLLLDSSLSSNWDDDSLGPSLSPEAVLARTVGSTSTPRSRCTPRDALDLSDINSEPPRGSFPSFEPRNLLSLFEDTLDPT
For orientation: Time-resolved FRET reads energy transfer from a long-lived donor to a nearby acceptor.
`Cc1nc(OC(F)F)c2c(C(N)=O)c(N)n(-c3c(C)ccc(O)c3C)c2n1` [Compound 10] yielded an IC50 of 3.4 nM.
To `Cc1nc(OCF)c2c(C(N)=O)c(N)n(-c3c(C)ccc(O)c3C)c2n1` [Compound 11] belongs 2.3 nM; to `COc1nc(C)nc2c1c(C(N)=O)c(N)n2-c1c(C)ccc(O)c1C` (atropisomer, axis not shown) [Compound 7], 1.5 nM.
Molecule `Cc1ccc(O)c(C)c1-n1c(N)c(C(N)=O)c2c(=O)n(C)c(C)cc21` [Compound 3, 2-amino-1-(3-hydroxy-2,6-dimethylphenyl)-5,6-dimethyl-4-oxopyrrolo[3,2-c]pyridine-3-carboxamide] gave a concentration for half-maximal inhibition (IC50) of 11.9 nM.
Under `Cc1ccc(O)c(C)c1-n1c(N)c(C(N)=O)c2cnc(C(F)(F)F)nc21` [Compound 2] stands 8.9 nM; under `Cc1nc(N2CCC2)c2c(C(N)=O)c(N)n(-c3c(C)ccc(O)c3C)c2n1` (atropisomer, axis not shown) [Compound 8], 13 nM.
In turn, `Cc1nc(Oc2cnn(C)c2)c2c(C(N)=O)c(N)n(-c3c(C)ccc(O)c3C)c2n1` (atropisomer, axis not shown) [Compound 9] returned an IC50 of 2.8 nM. This IC50 lies about 4.6-fold lower than the previous one.
For `Cc1ncc2c(C(N)=O)c(N)n(-c3c(C)ccc(O)c3Cl)c2n1` [Compound 4, 6-amino-7-(2-chloro-3-hydroxy-6-methylphenyl)-2-methylpyrrolo[2,3-d] pyrimidine-5-carboxamide], the concentration for half-maximal inhibition (IC50) stood at 4.1 nM. This IC50 and that of the molecule before are within 1.5-fold of each other.
In the case of `Cc1ccc(O)c(C)c1-n1c(N)c(C(N)=O)c2c(=O)n(CF)c(C)nc21` [Compound 12-P2], inhibition was half-maximal at 1.5 nM (IC50).

As a reminder, the IC50 is the concentration that gives 50% inhibition. Higher therefore signals weaker potency in that assay.

(Values after patent publication US20250197405A1, “HETEROAROMATIC COMPOUNDS AS PKMYT1 INHIBITORS AND USE THEREOF” (INSILICO MEDICINE IP LIMITED, priority 2022, published 2025).)
